Assay results from patent US11891405B2, “Furo[3,4-b]pyrrole-containing BTK inhibitor” (CHIA TAI TIANQING PHARMACEUTICAL GROUP CO., LTD., priority 2018, dated 2024).
Like-named read-outs stand apart in the source and are kept apart here.

Legend:
EGFR (WT) = EGFR (WT) (Homo sapiens, UniProt P00533); assay: Screening for EGFR inhibitory activity; type: biochemical
Procedure: 1.2 Screening for EGFR (Epidermal Growth Factor Receptor) Inhibitory Activity
50 ng/μL EGFR (WT) stock solution was diluted with kinase buffer (50 mM HEPES, 10 mM MgCl2, 2 mM DTT, 1 mM EGTA, 0.01% Tween 20), and 6 μL of 1.67× working solution at 0.01336 ng/μL (final concentration: 0.008 ng/μL) was added to each well. Different compounds dissolved in DMSO were added to the wells using a nanoliter pipettor, resulting in the final concentration of 1000 nM to […] (4-fold gradient for 7 concentrations in total), and blank control wells (without enzyme) and negative control wells (with enzyme, plus vehicle DMSO) were set, 2 replicate wells for each well. After enzyme was reacted with the compound or vehicle for 10 min, 5× ATP at 25 μM (final concentration: 5 μM) prepared with kinase buffer was mixed with 5× substrate at 0.5 μM (final concentration: 0.1 μM, ULight-poly GT) at a ratio of 1:1, and the mixture was added to each well at 4 μL/well. After being sealed with a film, the plate was incubated at room temperature for 2 h, then 5 μL of 4×EDTA at 40 mM (final concentration: 10 mM) was added to each well. After the plate was incubated for 5 min at room temperature, 5 μL of 4× detection reagent at 8 nM (final concentration: 2 nM, Eu-anti-phospho-tyrosine antibody) was added to each well, followed by incubation at room temperature for 1 h. The plate was read using a PE Envision multi-functional microplate reader (excitation: 320 nm, emission: 665 nm), and IC50 was calculated by four-parameter fitting.

OCI-LY10 cells = assay: In vivo pharmacodynamic study, OCI-LY10 xenograft; set-up: species or system NOD-SCID mice; settings: for TGI (%): tumor growth inhibition from tumor weight, 23 days; for TGI (%) / d0 TV Mean ± SD: 50 mg/kg bid i.g.; for d0 TV Mean ± SD: tumor volume at day 0 (grouping); for d21 TV Mean ± SD: tumor volume at day 21, 50 mg/kg bid i.g.; for d23 TV Mean ± SD: tumor volume at day 23, 50 mg/kg bid i.g.
Procedure: EXPERIMENTAL EXAMPLE 5: IN VIVO PHARMACODYNAMIC STUDY
OCI-LY10 cells were subcutaneously grafted (concentration: 1×10^8/mL×0.1 mL/mice) in NOD-SCID mice at the right side armpit (the inoculated site was shaved upon grafting) under aseptic conditions. After subcutaneous grafting, the animals were grouped when the tumor volume reached about 100-300 mm^3:
Model group: vehicle: 6 mice; I-1: 6 mice, 50 mg/kg, bid, i.g.; I-3: 6 mice, 50 mg/kg, bid, i.g.
The vehicle or compound was administered by intragastric administration at a volume of 10 mL/kg, twice daily, for 23 days. The tumor volume was measured 2-3 times per week, and the mice were weighed at the same time, with the data recorded. Animal behavior was observed daily. After all administration was completed, the animals were executed, stripped of tumors and weighed.
The tumor volume and the tumor growth inhibition were calculated using the following formulas: Tumor volume(TV)=(Length×Width^2)/2. Tumor growth inhibition(TGI)=(1−tumor weight in treatment group/tumor weight in model group)×100%.

[1] = In vivo pharmacokinetic assay on mouse; settings: ICR mice; for MRT last: read-out: MRT(0-t)
Procedure: EXPERIMENTAL EXAMPLE 4: IN VIVO PHARMACOKINETIC ASSAY ON MOUSE
ICR mice weighing 18-22 g were randomly grouped into 9 mice in each group after being fed for 3-5 days, and administered intragastrically with related compound at a dose of 10 mg/kg, and injected intravenously with the test compound at a dose of 1 mg/kg, respectively. The test animals (ICR mice) were fasted for 12 h before administration and fed for 4 h after administration, and water was freely drunk before and after the experiment and during the experiment. After intragastric administration, 0.1 mL of the blood at the orbit was collected at 0.25 h (15 min), 0.5 h (30 min), 1 h, 2 h, 4 h, 6 h, 8 h, 10 h and 24 h, and after intravenous injection, 0.1 mL of the blood at the orbit was collected at 0.083 h (5 min), 0.167 h (10 min), 0.5 h (30 min), 1 h, 2 h, 6 h, 8 h, 10 h and 24 h. Each mouse was sampled at 3-4 time points, and 3 mice were sampled at each time point. Whole blood was collected and placed in centrifuge tubes containing EDTA-K2 and sodium fluoride, then transferred to a 4° C. centrifuge within 30 min and centrifuged at 4000 rpm for 10 min to separate the plasma. All plasma was collected and immediately stored at −20° C. for testing. 20 μL of a plasma test sample and a standard curve sample were pipetted into 300 μL of acetonitrile solution containing an internal standard (diazepam […]), and the mixture was shaken and mixed for 5 min, and centrifuged at 13,000 rpm for 10 min. 80 μL of supernatant was diluted with 80 μL of ultrapure water, and the mixture was mixed well, form which 1 μL of the sample was pipetted and analyzed by LC/MS/MS, and a chromatogram was recorded. Oral and intravenous exposure of the compounds disclosed herein was evaluated by pharmacokinetic experiments in mice and the results are shown in Table 4.

Chain of EGFR (WT) (P00533 25-1210, species assumed): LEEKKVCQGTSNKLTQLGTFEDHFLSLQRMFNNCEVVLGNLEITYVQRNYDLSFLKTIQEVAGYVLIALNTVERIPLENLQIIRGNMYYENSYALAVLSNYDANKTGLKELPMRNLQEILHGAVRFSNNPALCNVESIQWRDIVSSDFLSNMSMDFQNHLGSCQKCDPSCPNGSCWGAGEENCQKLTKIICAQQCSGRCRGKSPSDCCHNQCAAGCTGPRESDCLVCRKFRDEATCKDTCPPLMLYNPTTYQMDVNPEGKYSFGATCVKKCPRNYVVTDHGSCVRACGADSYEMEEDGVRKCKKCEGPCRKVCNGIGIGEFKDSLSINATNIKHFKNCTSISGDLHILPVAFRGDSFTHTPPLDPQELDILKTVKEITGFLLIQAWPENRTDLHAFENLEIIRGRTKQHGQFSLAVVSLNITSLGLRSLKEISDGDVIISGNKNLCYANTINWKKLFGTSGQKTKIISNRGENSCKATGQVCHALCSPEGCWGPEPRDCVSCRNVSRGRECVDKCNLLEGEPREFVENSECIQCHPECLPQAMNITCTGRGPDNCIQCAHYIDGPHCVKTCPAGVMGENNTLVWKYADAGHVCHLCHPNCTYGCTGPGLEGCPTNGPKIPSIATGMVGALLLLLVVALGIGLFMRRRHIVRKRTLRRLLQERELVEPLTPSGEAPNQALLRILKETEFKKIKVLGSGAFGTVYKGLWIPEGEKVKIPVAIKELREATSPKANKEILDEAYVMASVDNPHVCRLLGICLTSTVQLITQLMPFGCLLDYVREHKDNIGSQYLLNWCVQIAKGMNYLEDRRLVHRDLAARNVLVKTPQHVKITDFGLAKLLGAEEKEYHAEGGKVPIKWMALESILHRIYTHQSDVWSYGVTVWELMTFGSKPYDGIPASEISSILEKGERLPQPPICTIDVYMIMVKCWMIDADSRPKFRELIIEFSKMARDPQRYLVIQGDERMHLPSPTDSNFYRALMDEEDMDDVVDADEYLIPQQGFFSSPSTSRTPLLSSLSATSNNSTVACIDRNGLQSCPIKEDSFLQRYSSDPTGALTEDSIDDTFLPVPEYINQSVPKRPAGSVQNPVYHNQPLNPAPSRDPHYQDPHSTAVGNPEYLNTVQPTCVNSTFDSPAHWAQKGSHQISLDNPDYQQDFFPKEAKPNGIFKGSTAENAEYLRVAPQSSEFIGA

Compound: CC#CC(=O)N1[C@@H]2COC[C@@H]2C[C@H]1c1nc(-c2ccc(C(=O)Nc3ccccn3)cc2)c2c(N)nccn12 [Compound I-1, 4-(8-amino-3-((2S,3aR,6aS)-1-(but-2-ynoyl)hexahydro-1H-furo[3,4-b]pyrrol-2-yl)imidazo [1,5-a]pyrazin-1-yl)-N-(pyridin-2-yl)benzamide]
- IC50 (EGFR (WT)): > 1 µM
- TGI (%) (OCI-LY10 cells): 79.4%
- d0 TV Mean ± SD (OCI-LY10 cells): 176 ± 35 mm^3
- d21 TV Mean ± SD (OCI-LY10 cells): 742 ± 109 mm^3
- d23 TV Mean ± SD (OCI-LY10 cells): 847 ± 189 mm^3
- t1/2z ([1]; ig 10 mg/kg): 142 min
- CLz ([1]; iv 1 mg/kg): 20.4 L/h/kg
- t1/2z ([1]; iv 1 mg/kg): 43.8 min
- bioavailability ([1]; mouse, plasma, oral, ig 10 mg/kg vs iv 1 mg/kg, read-out: Absolute bioavailability F %): 72.4%
- AUC(0-inf) ([1]; mouse, plasma, po, ig 10 mg/kg): 0.315 µg·h/mL
- AUC(0-t) ([1]; mouse, plasma, po, ig 10 mg/kg): 0.315 µg·h/mL
- Cmax ([1]; mouse, plasma, po, ig 10 mg/kg): 0.0927 µg/mL
- Tmax ([1]; mouse, plasma, po, ig 10 mg/kg): 15 min
- MRT last ([1]; mouse, plasma, po, ig 10 mg/kg): 184 min
- AUC(0-inf) ([1]; mouse, plasma, iv 1 mg/kg): 0.0436 µg·h/mL
- AUC(0-t) ([1]; mouse, plasma, iv 1 mg/kg): 0.0436 µg·h/mL
- MRT last ([1]; mouse, plasma, iv 1 mg/kg): 31.2 min
- Vd ([1]; mouse, plasma, iv 1 mg/kg, read-out: Vz): 21.5 L/kg

Compound: C=CC(=O)N1[C@@H]2COC[C@@H]2C[C@H]1c1nc(-c2ccc(C(=O)Nc3ccccn3)cc2)c2c(N)nccn12 [Compound I-3, 4-(3-((2S,3AR,6AS)-1-ACRYLOYLHEXAHYDRO-1H-FURO[3,4-B]PYRROL-2-YL)-8-AMINOIMIDAZO [1,5-A]PYRAZIN-1-YL)-N-(PYRIDIN-2-YL)BENZAMIDE]
- IC50 (EGFR (WT)): 0.107 µM
- TGI (%) (OCI-LY10 cells): 84.1%
- d0 TV Mean ± SD (OCI-LY10 cells): 177 ± 16 mm^3
- d21 TV Mean ± SD (OCI-LY10 cells): 645 ± 202 mm^3
- d23 TV Mean ± SD (OCI-LY10 cells): 647 ± 343 mm^3

Compound: CC#CC(=O)N1[C@@H]2COC[C@@H]2C[C@H]1c1nc(-c2ccc(C(=O)Nc3cc(C(F)(F)F)ccn3)cc2F)c2c(N)nccn12 [Compound I-4, 4-(8-AMINO-3-((2S,3AR,6AS)-1-(BUT-2-YNOYL)HEXAHYDRO-1H-FURO[3,4-B]PYRROL-2-YL)IMIDAZO[1,5-A]PYRAZIN-1-YL)-3-FLUORO-N-(4-(TRIFLUOROMETHYL)PYRIDIN-2-YL)BENZAMIDE]
- IC50 (EGFR (WT)): > 1 µM

Compound: Nc1nccn2c([C@@H]3C[C@H]4COC[C@H]4N3C(=O)C3CC3)nc(-c3ccc(C(=O)Nc4cc(C(F)(F)F)ccn4)cc3F)c12 [Compound I-7, 4-(8-AMINO-3-((2S,3AR,6AS)-1-(CYCLOPROPANECARBONYL)HEXAHYDRO-1H-FURO[3,4-B]PYRROL-2-YL)IMIDAZO[1,5-A]PYRAZIN-1-YL)-3-FLUORO-N-(4-(TRIFLUOROMETHYL)PYRIDIN-2-YL)BENZAMIDE]
- IC50 (EGFR (WT)): > 1 µM
